Series [1] relates to HIV-1 protease (Human immunodeficiency virus 1). In words: Binding affinity against HIV protease.; Not determined due to low enzyme inhibition.
Series [2] has the same test system. As to the kind of experiment: Inhibition against HIV protease at 1 uM.
For series [3] the test system is unchanged. As to the kind of experiment: Binding affinity against HIV protease at 30 uM.
Series [4] has the same test system. As to the kind of experiment: Binding affinity against HIV protease at 30 uM concentration.
Series [5] shares this test system. As to the kind of experiment: Binding affinity against HIV protease at 1 uM.
Series [6] in a line: Maximum plasma concentration for the compound in suspension form (formulation) was determined in rats at peroral dose of 5 mg/kg. In kind it is ADME, organism-based. Details: dose 5 mg/kg, route oral. The note with it: rat, po.
Series [7] in a line: Time taken for maximum plasma concentration for the compound in solution form (formulation) was determined in rats at peroral dose of 5 mg/kg. It counts as ADME, organism-based. Also noted: dose 5 mg/kg, route oral. The note with it: rat, po.
Series [8] can be described thus: Time taken for maximum plasma concentration for the compound in suspension form (formulation) was determined in rats at peroral dose of 5 mg/kg. In kind it is ADME, organism-based. Also noted: dose 5 mg/kg, route oral. The note with it: rat, po.
The nature of series [9]: Maximum plasma concentration for the compound in solution form (formulation) was determined in rats at peroral dose of 5 mg/kg. The note with it: rat, po. It counts as ADME, organism-based. Also noted: dose 5 mg/kg, route oral.

The inhibition is the drop in the measured response relative to a control, in per cent. Lower therefore signals a weak effect. What is called Cmax is the highest concentration seen after dosing. The term Tmax denotes the time from dosing to the highest level.

On to `O=c1c2c(oc(O)c1C(c1ccccc1)C1CC1)CCC2` (configuration not stated), for which the Ki result in series [1] is on record as “Low inhibition”. Further, in [2], the inhibition amounted to 40%.
In the case of `O=c1c(CCc2ccccc2)c(O)oc2c1CCCCCC2`, the inhibition in series [3] is below 10%.
Regarding `O=c1c(CCCc2ccccc2)c(O)oc2c1CCCCCC2`, the inhibition in series [4] worked out at 38%.
On to `O=c1c2c(oc(O)c1C(c1ccccc1)C1CC1)CCCCCCCC2` (configuration not stated), for which the inhibition in series [2] came to 23%.
On the same count and under the same terms, the same measure for `O=c1c2c(oc(O)c1C(c1ccccc1)C1CC1)CCCCCCC2` (configuration not stated): 94%.
With `O=c1c2c(oc(O)c1C(c1ccccc1)C1CC1)CCCCCCCCCC2` (configuration not stated), in series [1], the Ki entry is “Low inhibition”. This molecule had an inhibition in [2] below 10%.
Regarding `CC(c1ccccc1)c1c(O)c2c(oc1=O)CCCCCC2` (configuration not stated), the inhibition in [5] was 10%.
The molecule `O=c1c2c(oc(O)c1C(c1ccccc1)C1CC1)CCCC2` (configuration not stated) registered an inhibition in series [2] of 62%.
Take `O=c1c2c(oc(O)c1C(c1ccccc1)C1CC1)CCCCCC2` (configuration not stated): the Cmax was determined as 30.3 µM in series [6] and 40.8 µM in series [9]. For the same molecule, the Tmax was 3.7 h in [7] and 6 h in series [8]. The inhibition in series [2] turned out to be 95%.
Take `O=c1c2c(oc(O)c1C(c1ccccc1)C1CC1)CCCCC2` (configuration not stated): the inhibition in series [2] was found to be 70%.
Regarding `O=c1c(Cc2ccccc2)c(O)oc2c1CCCCCC2`, the inhibition in [3] was below 10%.

For the origin of these results see ChEMBL document CHEMBL1128378, “Use of medium-sized cycloalkyl rings to enhance secondary binding: discovery of a new class of human immunodeficiency virus (HIV) protease inhibitors” (J Med Chem, 1995).
